The text below walks through data of patent US20260297060A1, “COMPOUNDS FOR THE DEGRADATION OF MUTANT BRAF” (C4 THERAPEUTICS, INC., priority 2023, published 2026).

Each structure is given as a SMILES string. Read-outs that look alike come from different tables or passages of the source. Some results are limits rather than exact numbers.

For one assay, the target named is T1, BRAF V600E (Homo sapiens, UniProt P15056+Q96SW2, V600E).
T1 construct: knock-in of the HiBiT tag to the endogenous BRAF V600E locus; host or cells: A375.10 (A375 clonal line, CRISPR HiBiT knock-in at the endogenous BRAF V600E locus)
In words: BRAF V600E HiBiT Degradation Assay. Format: cell-based. The essentials:
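Endogenous HiBiT knock-in on BRAF V600E in A375 cells (clone A375.10); 11-point half-log series, top 10 μM, 2, 6 or 24 h at 37° C. Lytic HiBiT luminescence, background-subtracted, normalized to DMSO; 4-parameter fit gives DC50, Emax (residual protein) and IP (inflection point).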

The test system of the next assay is A375-NRAS^Q61K cells. The assay can be described thus: CTGlo Cell Viability Assay, A375-NRAS^Q61K (A375.11) cells, 96 hours. It is filed as cell-based, human. The conditions noted are these: A375.11 (A375-NRAS^Q61K) cells; for CTGlo A375.11 96 hours Emax: lowest % viability achieved. The essentials: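 A375 cells carrying BRAF V600E and NRAS Q61K were seeded at 250 cells/well with a 10-point half-log dose series (max 10 μM final). After 96 h at 37 °C, viability was read as ATP luminescence (CellTiter-Glo), background-subtracted and normalized to DMSO (100%). GI50 from 4-parameter fit; Emax is the lowest % viability.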

[1] abbreviates: A375.10 cells, BRAF V600E, 2 hours, inflection point, read-out: HiBiT-Degradation A375.10 BRAF 2 hours IP.
[2] abbreviates: A375.10 cells, BRAF V600E, 2 hours, read-out: HiBiT-Degradation A375.10 BRAF 2 hours DC50.
Where [3] appears, read: A375.10 cells, BRAF V600E, 2 hours, residual protein remaining.

T1 sequence (P15056 whole entry V600E): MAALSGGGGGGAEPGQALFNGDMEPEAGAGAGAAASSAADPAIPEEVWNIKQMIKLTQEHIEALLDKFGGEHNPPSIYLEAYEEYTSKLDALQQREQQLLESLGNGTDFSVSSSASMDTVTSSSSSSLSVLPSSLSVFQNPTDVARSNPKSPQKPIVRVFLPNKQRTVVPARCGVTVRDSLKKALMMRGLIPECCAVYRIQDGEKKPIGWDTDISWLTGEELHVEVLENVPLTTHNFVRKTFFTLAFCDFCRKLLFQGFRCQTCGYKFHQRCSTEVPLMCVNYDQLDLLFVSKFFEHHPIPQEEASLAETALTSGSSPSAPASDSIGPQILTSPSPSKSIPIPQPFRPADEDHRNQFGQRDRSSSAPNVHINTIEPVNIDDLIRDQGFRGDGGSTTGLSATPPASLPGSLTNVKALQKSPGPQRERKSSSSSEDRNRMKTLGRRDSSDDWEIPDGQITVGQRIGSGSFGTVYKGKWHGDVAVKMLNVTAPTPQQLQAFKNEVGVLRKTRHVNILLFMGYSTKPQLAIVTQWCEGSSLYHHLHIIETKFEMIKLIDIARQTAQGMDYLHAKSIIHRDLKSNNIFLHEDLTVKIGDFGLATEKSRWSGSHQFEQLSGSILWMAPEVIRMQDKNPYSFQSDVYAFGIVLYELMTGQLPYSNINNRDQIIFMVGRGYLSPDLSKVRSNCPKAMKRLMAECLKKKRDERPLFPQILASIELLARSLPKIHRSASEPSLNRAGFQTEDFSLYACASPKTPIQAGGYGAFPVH
T1 sequence (Q96SW2 whole entry): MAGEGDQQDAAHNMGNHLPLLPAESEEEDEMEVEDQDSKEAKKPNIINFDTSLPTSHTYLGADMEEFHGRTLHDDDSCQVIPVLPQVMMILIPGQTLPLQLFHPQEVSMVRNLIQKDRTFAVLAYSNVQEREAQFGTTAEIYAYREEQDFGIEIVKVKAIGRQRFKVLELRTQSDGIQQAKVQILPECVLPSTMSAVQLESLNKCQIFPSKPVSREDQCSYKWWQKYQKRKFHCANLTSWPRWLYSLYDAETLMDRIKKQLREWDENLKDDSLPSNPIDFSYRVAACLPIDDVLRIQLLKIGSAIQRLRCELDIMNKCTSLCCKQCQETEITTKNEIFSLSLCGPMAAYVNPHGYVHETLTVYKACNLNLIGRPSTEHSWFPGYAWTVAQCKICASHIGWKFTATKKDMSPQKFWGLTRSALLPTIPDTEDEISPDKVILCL
T1 sequence (Q16531 whole entry partner): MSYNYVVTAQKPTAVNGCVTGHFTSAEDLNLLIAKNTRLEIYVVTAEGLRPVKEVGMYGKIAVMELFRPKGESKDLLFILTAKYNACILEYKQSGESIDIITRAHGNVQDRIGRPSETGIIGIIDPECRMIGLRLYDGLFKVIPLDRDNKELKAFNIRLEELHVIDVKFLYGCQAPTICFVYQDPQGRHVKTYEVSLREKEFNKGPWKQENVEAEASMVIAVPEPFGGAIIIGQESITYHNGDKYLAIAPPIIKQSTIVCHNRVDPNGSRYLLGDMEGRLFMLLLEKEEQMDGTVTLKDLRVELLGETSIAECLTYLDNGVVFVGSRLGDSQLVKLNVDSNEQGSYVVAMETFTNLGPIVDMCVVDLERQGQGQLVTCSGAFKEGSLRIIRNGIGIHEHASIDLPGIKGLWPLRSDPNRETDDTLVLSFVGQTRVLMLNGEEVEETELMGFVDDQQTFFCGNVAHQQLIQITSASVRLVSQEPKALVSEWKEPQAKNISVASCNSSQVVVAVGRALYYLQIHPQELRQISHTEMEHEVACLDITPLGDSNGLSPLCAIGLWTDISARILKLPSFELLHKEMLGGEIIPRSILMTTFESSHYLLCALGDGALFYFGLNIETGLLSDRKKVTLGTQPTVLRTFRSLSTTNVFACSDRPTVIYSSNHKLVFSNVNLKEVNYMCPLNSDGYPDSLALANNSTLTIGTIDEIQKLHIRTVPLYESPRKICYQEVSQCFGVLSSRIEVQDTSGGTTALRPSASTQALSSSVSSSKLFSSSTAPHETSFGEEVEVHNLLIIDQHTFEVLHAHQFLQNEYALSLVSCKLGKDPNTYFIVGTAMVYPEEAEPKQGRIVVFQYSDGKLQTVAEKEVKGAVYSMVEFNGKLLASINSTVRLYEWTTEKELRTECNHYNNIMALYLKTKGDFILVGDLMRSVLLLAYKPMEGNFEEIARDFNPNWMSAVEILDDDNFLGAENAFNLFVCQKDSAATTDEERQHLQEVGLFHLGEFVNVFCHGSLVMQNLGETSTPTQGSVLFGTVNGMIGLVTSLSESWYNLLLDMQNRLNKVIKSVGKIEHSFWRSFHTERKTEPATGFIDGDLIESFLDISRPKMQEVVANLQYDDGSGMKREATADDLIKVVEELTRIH

With `CCN(C)S(=O)(=O)Nc1ccc(F)c(Oc2ccc3ncn([C@@H]4CO[C@]5(CCN(C6CCC(c7cc8c(cc7F)c(N7CCC(=O)NC7=O)nn8C)CC6)C5)C4)c(=O)c3c2)c1C#N` (single isomer, unassigned) [Compound 291], the DC50 is under 1 µM at BRAF V600E (setting [1]) and over 10 µM at BRAF V600E (setting [2]). Also, the “HiBiT-Degradation A375.10 BRAF 2 hours Emax” value at BRAF V600E (setting [3]) is “** (<90% and >50%)”. The GI50 in the assay on A375-NRAS^Q61K cells is 1 to 10 µM. Further, in the assay with A375-NRAS^Q61K cells, the “CTGlo A375.11 96 hours Emax” value is “* (>=90%)”.
`CCN(C)S(=O)(=O)Nc1ccc(F)c(Oc2ccc3ncn(C4CC5(C4)CN(C4CCC(c6cc7c(cc6F)c(N6CCC(=O)NC6=O)nn7C)CC4F)C5)c(=O)c3c2)c1C#N` (single isomer, unassigned) [Compound 300]: the DC50 was under 1 µM at BRAF V600E (setting [1]); under 1 µM at BRAF V600E (setting [2]); under 1 µM on BRAF V600E (A375.10 cells, HiBiT, BRAF V600E, 24 hours, read-out: HiBiT-Degradation A375.10 BRAF 24 hours DC50); under 1 µM on BRAF V600E (A375.10 cells, HiBiT, BRAF V600E, 24 hours, read-out: HiBiT-Degradation A375.10 BRAF 24 hours IP). Besides, the “HiBiT-Degradation A375.10 BRAF 2 hours Emax” value on BRAF V600E (setting [3]) is “*** (<=50%)”. At BRAF V600E (A375.10 cells, HiBiT, BRAF V600E, 24 hours), the “HiBiT-Degradation A375.10 BRAF 24 hours Emax” value was “*** (<=50%)”. In the assay on A375-NRAS^Q61K cells, the GI50 was under 1 µM. Further, in the assay with A375-NRAS^Q61K cells, the “CTGlo A375.11 96 hours Emax” value was “** (<90% and >50%)”.
On to `CCN(C)S(=O)(=O)Nc1ccc(F)c(Oc2ccc3ncc([C@@H]4COC5(CCN(C6CCC(c7ccc(NC8CCC(=O)NC8=O)cc7F)CC6)CC5)C4)nc3c2)c1C#N` (single isomer, unassigned) [Compound 61], for which the “HiBiT-Degradation A375.10 BRAF 2 hours Emax” value at BRAF V600E was “** (<90% and >50%)”. Besides, the DC50 on BRAF V600E (setting [1]) was under 1 µM. Also, on BRAF V600E (setting [2]), the DC50 lay within 1 to 10 µM. In addition, in the assay on A375-NRAS^Q61K cells, the GI50 is over 10 µM; the “CTGlo A375.11 96 hours Emax” value was “** (<90% and >50%)”.
